This note sets out measurements from US9000162B2, “5,8-difluoro-4-(2-(4-(heteroaryloxy)-phenyl)ethylamino)quinazolines and their use as agrochemicals” (Dow AgroSciences LLC, priority 2008, dated 2015).

Format in all cases: in vivo
The subject of assay [1] is Septoria tritici (SEPTTR). Nature of the assay: Septoria blotch of wheat foliar protectant test. Particulars: Zymoseptoria tritici, read-out: Activity against fungal diseases SEPTTR; for pest or weed control at 200 ppm: 200 ppm foliar, inoculated one day after treatment. In a few lines: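 Wheat seedlings (3-10 per pot) were sprayed to wet with formulated compound and inoculated next day with Septoria tritici spores. Plants then had 1 day in a dark dew chamber and 3 days in a lighted one before greenhouse incubation. Severity versus untreated inoculated plants gave percent control, scored *** 80-100%, ** 50-79%, * 0-49%.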

Assay [2] deals with Magnaporthe grisea = Pyricularia oryzae (PYRIOR). Nature of the assay: whole plant or invertebrate. Particulars: foliar, read-out: Activity against fungal diseases PYRIOR.
The test system of assay [3] is Pseudoperonospora cubensis (PSPECU). Nature of the assay: Cucumber downy mildew foliar protectant test. Particulars: 200 ppm foliar, inoculated one day after treatment, read-out: Activity against fungal diseases PSPECU. The gist of the method: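 Cucumber seedlings, first true leaf 20-80% expanded, were sprayed to wetness with formulated compound and inoculated next day with aqueous sporangia suspension. Severity was converted to percent control versus untreated inoculated plants: ***=80-100%, **=50-79%, *=0-49%.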

In assay [4] the test system is Puccinia recondita tritici (PUCCRT). Nature of the assay: Leaf rust of wheat foliar protectant test. Particulars: 200 ppm foliar, inoculated one day after treatment, read-out: Activity against fungal diseases PUCCRT. In a few lines: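 Wheat seedlings (3–8 per pot) were sprayed to wet with formulated compound and inoculated the next day with an aqueous Puccinia recondita tritici spore suspension. Severity was converted to % control versus untreated inoculated plants and rated *** 80–100%, ** 50–79%, * 0–49%.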

SMILES strings stand for the structures.

Take `COc1cc(CCNc2ncnc3c(F)ccc(F)c23)ccc1Oc1ncc(F)c(C(F)(F)F)c1F` [Compound 53]: the pest or weed control at 200 ppm in assay [1], in assay [2], in assay [3] and in assay [4] was 80 to 100% in each case.

`[O-][n+]1ccc(C(F)(F)F)cc1Oc1ccc(CCNc2ncnc3c(F)ccc(F)c23)cc1` [Compound 54]: the pest or weed control at 200 ppm in assay [1], in assay [2], in assay [3] and in assay [4] was 80 to 100% throughout.

For `Cc1cc(Oc2cc(C(F)(F)F)ccn2)ccc1CCNc1ncnc2c(F)ccc(F)c12` [Compound 55], the pest or weed control at 200 ppm in assay [1], in assay [2], in assay [3] and in assay [4] was 80 to 100% each time.

With `Oc1cc(CCNc2ncnc3c(F)ccc(F)c23)ccc1Oc1cc(C(F)(F)F)ccn1` [Compound 56], the pest or weed control at 200 ppm in assay [1] lay within 50 to 79%; in assay [2], 80 to 100%; in assay [3], 80 to 100%; in assay [4], 80 to 100%.

With `CCCOc1cc(CCNc2ncnc3c(F)ccc(F)c23)ccc1Oc1cc(C(F)(F)F)ccn1` [Compound 57], the pest or weed control at 200 ppm in assay [1], in assay [2], in assay [3] and in assay [4] was 80 to 100% in each case.

On to `CC(C)Oc1cc(CCNc2ncnc3c(F)ccc(F)c23)ccc1Oc1cc(C(F)(F)F)ccn1` [Compound 58], for which the pest or weed control at 200 ppm in assay [1], in assay [2], in assay [3] and in assay [4] was 80 to 100% each time.

On to `COc1cc(CCNc2ncnc3c(F)ccc(F)c23)ccc1Oc1cc(C(F)(F)F)cc[n+]1[O-]` [Compound 59], for which the pest or weed control at 200 ppm in assay [1], in assay [2], in assay [3] and in assay [4] was 80 to 100% throughout.

On to `CCOc1cc(CCNc2ncnc3c(F)ccc(F)c23)ccc1Oc1cc(C(F)(F)F)ccn1` [Compound 60], for which the pest or weed control at 200 ppm in assay [1], in assay [2], in assay [3] and in assay [4] was 80 to 100% in each case.

`Cc1cc(CCNc2ncnc3c(F)ccc(F)c23)ccc1Oc1cc(C(F)(F)F)cc[n+]1[O-]` [Compound 61]: the pest or weed control at 200 ppm in assay [1] was in the range of 80 to 100%; in assay [2], 50 to 79%; in assay [3], 80 to 100%; in assay [4] it was 80 to 100%.

For the compound `Cc1cc(CCNc2ncnc3c(F)ccc(F)c23)ccc1Oc1cc(C(C)(F)F)ccn1` [Compound 64], the pest or weed control at 200 ppm in assay [1], in assay [2], in assay [3] and in assay [4] was 80 to 100% each time.

As for `C=Cc1cc(CCNc2ncnc3c(F)ccc(F)c23)ccc1Oc1cc(C(F)(F)F)ccn1` [Compound 65], the pest or weed control at 200 ppm in assay [1], in assay [2], in assay [3] and in assay [4] was 80 to 100% each time.

As to `CCc1cc(CCNc2ncnc3c(F)ccc(F)c23)ccc1Oc1cc(C(F)(F)F)ccn1` [Compound 66], the pest or weed control at 200 ppm in assay [1], in assay [2], in assay [3] and in assay [4] was 80 to 100% each time.

For the compound `Fc1cc(CCNc2ncnc3c(F)cc(F)c(F)c23)ccc1Oc1cc(C(F)(F)F)ccn1` [Compound 67], the pest or weed control at 200 ppm in assay [1], in assay [2], in assay [3] and in assay [4] was 80 to 100% in each case.

Consider `COc1ccc(CCNc2ncnc3c(F)cc(F)c(F)c23)cc1C` [Compound 68], for which the pest or weed control at 200 ppm in assay [1] fell in the range of 0 to 49%; in assay [2], 80 to 100%; in assay [3] it was 50 to 79%; in assay [4] it was 0 to 49%.

As for `COc1cc(CCNc2ncnc3c(F)ccc(F)c23)ccc1Oc1c(Cl)cnc(C(F)(F)F)c1Cl` [Compound 69], the pest or weed control at 200 ppm in assay [1], in assay [2], in assay [3] and in assay [4] was 80 to 100% each time.

As for `Cc1cc(CCNc2ncnc3c(F)cc(F)c(F)c23)ccc1O` [Compound 70], the pest or weed control at 200 ppm in assay [1] lay within 50 to 79%; in assay [2], 50 to 79%; in assay [3], 0 to 49%; in assay [4], 50 to 79%.

On to `COc1ccc(CCNc2ncnc3c(F)ccc(F)c23)c(F)c1` [Compound 72], for which the pest or weed control at 25 ppm in assay [1] (foliar, Tested at 25 ppm (footnote b)) lay in the range of 0 to 49%. The pest or weed control at 200 ppm in assay [2], in assay [3] and in assay [4] was 80 to 100% each time.

Turning to `[O-][n+]1ccc(C(F)(F)F)cc1Oc1ccc(CCNc2ncnc3c(F)cc(F)c(F)c23)cc1` [Compound 75], the pest or weed control at 200 ppm in assay [1], in assay [2], in assay [3] and in assay [4] was 80 to 100% throughout.

For `COc1cc(CCNc2ncnc3c(F)ccc(F)c23)ccc1Oc1ccnc(C(F)(F)F)c1` [Compound 77], the pest or weed control at 200 ppm in assay [1], in assay [2], in assay [3] and in assay [4] was 80 to 100% each time.

Take `COc1cc(CCNc2ncnc3c(F)ccc(F)c23)ccc1Oc1ccnc(C(F)(F)F)c1Cl` [Compound 78]: the pest or weed control at 200 ppm in assay [1], in assay [2], in assay [3] and in assay [4] was 80 to 100% throughout.

On to `Cc1cc(CCNc2ncnc3c(F)ccc(F)c23)ccc1Oc1c(Cl)cnc(C(F)(F)F)c1Cl` [Compound 79], for which the pest or weed control at 200 ppm in assay [1] was 80 to 100%; in assay [2], 80 to 100%; in assay [3], 50 to 79%; in assay [4], 80 to 100%.

Regarding `Cc1cc(CCNc2ncnc3c(F)cc(F)c(F)c23)ccc1Oc1cc(C(F)(F)F)ccn1` [Compound 80], the pest or weed control at 200 ppm in assay [1], in assay [2], in assay [3] and in assay [4] was 80 to 100% throughout.

As to `Cc1cc(CCNc2ncnc3c(F)cc(F)c(F)c23)ccc1Oc1cc(C(F)(F)F)cc[n+]1[O-]` [Compound 81], the pest or weed control at 200 ppm in assay [1], in assay [2], in assay [3] and in assay [4] was 80 to 100% throughout.

Consider `Cc1cc(CCNc2ncnc3c(F)ccc(F)c23)ccc1Oc1ccnc(C(F)(F)F)c1` [Compound 82], for which the pest or weed control at 200 ppm in assay [1], in assay [2], in assay [3] and in assay [4] was 80 to 100% throughout.

Turning to `Fc1ccc(F)c2c(NCCc3ccc(Oc4ccncc4C(F)(F)F)cc3)ncnc12` [Compound 83], the pest or weed control at 200 ppm in assay [1], in assay [2], in assay [3] and in assay [4] was 80 to 100% throughout.

Consider `[O-][n+]1ccc(Oc2ccc(CCNc3ncnc4c(F)ccc(F)c34)cc2)c(C(F)(F)F)c1` [Compound 84], for which the pest or weed control at 200 ppm in assay [1], in assay [2], in assay [3] and in assay [4] was 80 to 100% in each case.

Take `COc1ccc(CCNc2ncnc3c(F)ccc(F)c23)cc1Cl` [Compound 85]: the pest or weed control at 200 ppm fell in the range of 0 to 49% in assay [1], 50 to 79% in assay [2], 80 to 100% in assay [3] and 0 to 49% in assay [4].

Turning to `COc1ccc(CCNc2ncnc3c(F)cc(F)c(F)c23)cc1Cl` [Compound 86], the pest or weed control at 200 ppm in assay [1] fell in the range of 0 to 49%; in assay [2], 0 to 49%; in assay [3], 80 to 100%; in assay [4], 0 to 49%.

In the case of `Oc1ccc(CCNc2ncnc3c(F)ccc(F)c23)cc1Cl` [Compound 87], the pest or weed control at 200 ppm in assay [1] lay within 0 to 49%; in assay [2] it was 0 to 49%; in assay [3], 50 to 79%; in assay [4], 0 to 49%.

Regarding `Oc1ccc(CCNc2ncnc3c(F)cc(F)c(F)c23)cc1Cl` [Compound 88], the pest or weed control at 200 ppm fell in the range of 0 to 49% in assay [1], 0 to 49% in assay [2], 80 to 100% in assay [3] and 0 to 49% in assay [4].

Take `COc1cc(CCNc2ncnc3c(F)ccc(F)c23)ccc1Oc1c(Cl)cnc(C(Cl)(Cl)Cl)c1Cl` [Compound 89]: the pest or weed control at 200 ppm was in the range of 50 to 79% in assay [1], 50 to 79% in assay [2], 50 to 79% in assay [3] and 80 to 100% in assay [4].
